A short description of data set [1]: Pharmacokinetic test in mice, plasma concentration by LC/MS/MS. It counts as in vivo. The following applies: male ICR mice, 30 mg/kg by gavage, CMC/TW80 carrier, n = 4, mean. Here is the method:
Evaluation of Pharmacokinetic Tests in Mice
Male ICR mice with a body weight of about 20-30 g, were given 30 mg/kg of solutions of compounds of Examples 10B, 16B, 18A, 63B and 78B of the present invention [CMC/TW80 as carrier] by gavage after fasting overnight. Blood samples were collected at 0.5, 1.0, 2.0, 4.0, 6.0, 8.0, 12 and 24 hours after the compound was administrated, and the concentrations of the compound in plasma were determined by LC/MS/MS.

Data set [2] concerns NCI-H358 (KRAS^G12C mutation) cell. Description: Cell assay of antiproliferative activity against NCI-H358 cell (Celltiter-Glo, 5 days). The data set is classed as cell-based. The following applies: 5 days incubation. An outline of the steps:
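KRAS G12C NCI-H358 cells were plated in 384-well format and incubated overnight before compound addition. Compounds were added as a 10-point series (diluted from 50 μM to 0.003 μM before transfer) and incubated 5 days. Viability by CellTiter-Glo luminescence, with IC50 from curve fitting.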

The test system of another data set is NCI-H358 tumor cells. Nature of the data set: H358 CDX tumor model, anti-tumor activity. Particulars: NCI-H358 xenograft in nude mice; for efficacy compared with control compound AMG 510 (in words): 20 mg/Kg; for TV (mm^3) Day 0: Day 0 (at grouping), 20 mg/Kg intragastric every day; for % TGI / % Tumor Growth / TV (mm^3) Day 20: Day 20, 20 mg/Kg intragastric every day. The data set is classed as in vivo. The protocol:
100 uL suspension containing 5×10^6 NCI-H358 tumor cells was subcutaneously injected into the right posterior back of nude mice. The health of the mice was monitored daily. Measurements were started when the tumor grew palpable. The tumor volume calculation formula was adopted: 0.5×L×W2, where L and W represented tumor length and width, respectively. The tumor grew to about 200 mm^3, the mice were randomly divided into groups. Mice were intragastrically administrated the corresponding dose (20 mg/Kg) of the compound's solution every day, and their general status was monitored at the same time. The tumor was measured 2 times a week, and the weight was measured twice a week.

10 compounds from US20230118795A1, “ARYL OR HETEROARYL PYRIDONE OR PYRIMIDINE DERIVATIVE, PREPARATION METHOD AND USE THEREOF” (SUZHOU ZELGEN BIOPHARMACEUTICALS CO., LTD., priority 2020, published 2023) can be followed below.

Like-named read-outs stand apart in the source and are kept apart here.

For `C=CC(=O)N1CCN(c2nc(=O)n(-c3c(C(C)C)ccnc3S(C)(=O)=O)c3nc(-c4c(O)cccc4F)c(F)cc23)[C@@H](C)C1` (single isomer, unassigned) [Example 16B], in data set [1], the AUC0-t came out at 46.1 ng·h/mL and the Cmax turned out to be 26.1 ng/mL. Besides, inhibition in data set [2] was half-maximal at 7 nM (IC50).
With `C=CC(=O)N1C[C@H](C)N(c2nc(=O)n(-c3c(C(C)C)cccc3S(C)(=O)=O)c3nc(-c4c(O)cccc4F)c(F)cc23)C[C@H]1C` (single isomer, unassigned) [Example 78B], in the data set on NCI-H358 tumor cells, the “efficacy compared with control compound AMG 510 (in words)” value was “better efficacy than the control compound AMG 510”, the “TV (mm^3) Day 0” value worked out at 196 mm^3, the “% TGI” value was 98.5% and the “% Tumor Growth” value is 13%. Further, the “TV (mm^3) Day 20” value in the data set with NCI-H358 tumor cells stood at 231 mm^3. Besides, in data set [1], the AUC0-t is 688 ng·h/mL and the Cmax was 722 ng/mL. Besides, the IC50 in data set [2] was 7 nM.
Regarding `C=CC(=O)N1CCN(c2nc(=O)n(-c3c(C)ccnc3C(C)C)c3nc(-c4c(O)cccc4F)c(F)cc23)[C@@H](C)C1` [AMG510, reference compound], in the data set on NCI-H358 tumor cells, the “TV (mm^3) Day 0” value turned out to be 196 mm^3, the “% TGI” value came out at 86.8%, the “% Tumor Growth” value is given as 117% and the “TV (mm^3) Day 20” value amounted to 437 mm^3.
Turning to `C=CC(=O)N1C[C@H](C)N(c2nc(=O)n(-c3c(C4CCC4)cccc3S(C)(=O)=O)c3nc(-c4c(O)cccc4F)c(F)cc23)C[C@H]1C` (single isomer, unassigned) [Example 63B], in the data set with NCI-H358 tumor cells, the “efficacy compared with control compound AMG 510 (in words)” value is on record as “better efficacy than the control compound AMG 510”, the “TV (mm^3) Day 0” value is 196 mm^3, the “% TGI” value was 97.8% and the “% Tumor Growth” value came to 19%. Further, the “TV (mm^3) Day 20” value with NCI-H358 tumor cells is on record as 263 mm^3. For the same compound, in data set [1], the AUC0-t was found to be 1540 ng·h/mL and the Cmax turned out to be 796 ng/mL. This compound displayed an IC50 in data set [2] of 8 nM.
`C=CC(=O)N1CCN(c2nc(=O)n(-c3c(S(C)(=O)=O)ccnc3C(C)C)c3nc(-c4c(O)cccc4F)c(F)cc23)[C@@H](C)C1` (single isomer, unassigned) [Example 18A]: the AUC0-t in data set [1] (mouse, po, read-out: AUC0-t) was 219 ng·h/mL. In addition, in data set [1] (mouse, po, read-out: Cmax), the Cmax was determined as 336 ng/mL. In data set [2], this compound showed an IC50 of 13 nM.
Regarding `C=CC(=O)N1CCN(c2nc(=O)n(-c3c(C(C)C)cccc3S(C)(=O)=O)c3nc(-c4c(O)cccc4F)c(F)cc23)[C@@H](C)C1` (single isomer, unassigned) [Example 10B], in data set [1], the AUC0-t worked out at 1548 ng·h/mL and the Cmax is reported as 1570 ng/mL. In data set [2], the half-maximal inhibitory concentration (IC50) is 5 nM.
Consider `C=CC(=O)N1CCN(c2nc(=O)n(-c3c(C(C)C)cccc3S(C)(=O)=O)c3nc(-c4c(F)cccc4OC(C)=O)c(F)cc23)[C@@H](C)C1` [Example 31, 2-(4-((S))-4-acryloyl-2-methylpiperazin-1-yl)-6-fluoro-1-(2-isopropyl-6-(methylsulfonyl)phenyl)-2-oxo-1,2-dihydropyridino[2,3-d]pyrimidin-7-yl)-3-fluorophenyl acetate], for which half-maximal inhibition in data set [2] (IC50) required 8 nM.
Same read-out and setting: with `C=CC(=O)N1CCN(c2nc(=O)n(-c3c(CC)cccc3S(C)(=O)=O)c3nc(-c4c(O)cccc4F)c(F)cc23)[C@@H](C)C1` [Example 5, 4-((S)-4-acrylo-2-methylpiperazin-1-yl)-1-(2-ethyl-6-(methylsulfonyl)phenyl)-6-fluoro-7-(2-fluoro-6-hydroxyphenyl) pyridino[2,3-d] pyrimidin-2(1H)-one] the figure was 28 nM.
The compound `C=CC(=O)N1CCN(c2nc(=O)n(-c3c(C(C)C)ccnc3S(C)(=O)=O)c3nc(-c4c(F)cccc4OC)c(F)cc23)[C@@H](C)C1` [Example 19, 4-((S)-4-acryloyl-2-methylpiperazin-1-yl)-6-fluoro-7-(2-fluoro-6-methoxyphenyl)-1-(4-isopropyl-2-(methylsulfonyl)pyridin-3-yl) pyridino[2,3-d]pyrimidin-2(1H)-one] yielded an IC50 in data set [2] (Homo sapiens, NCI-H358, 120 h) of 48 nM.
In data set [2], `C=CC(=O)N1CCN(c2nc(=O)n(-c3c(C)cccc3S(C)(=O)=O)c3nc(-c4c(O)cccc4F)c(F)cc23)[C@@H](C)C1` (single isomer, unassigned) [Example 87B] showed an IC50 of less than 100 nM.
